The values below come from ChEMBL document CHEMBL4321866, “Discovery of Highly Potent and Efficient PROTAC Degraders of Androgen Receptor (AR) by Employing Weak Binding Affinity VHL E3 Ligase Ligands” (J Med Chem, 2019).

Active and inactive are the calls of the source. No cut-off for these calls is given here. Bounds are passed on as bounds.

Broadly, the DC50 is the concentration at which degradation of the target reaches its halfway point. One may read the IC50 as the concentration that gives 50% inhibition.

Test [1] has as its target T1, von Hippel-Lindau disease tumor suppressor/Androgen receptor (Homo sapiens, UniProt P10275+P40337). The test can be described thus: Protac activity against VHL/AR in AR-positive human LNCAP cells assessed as reduction in PSA mRNA expression level incubated for 24 hrs by qRT-PCR analysis relative to N-((1r,3r)-3-(3-Chloro-4-cyanophenoxy)-2,2,4,4-tetramethylcyclobutyl)-1-(2-hydroxyethyl)-1H-pyrazole-4-carboxamide. The class given is cell-based. (Real-time PCR tracks product formation cycle by cycle.)
Target sequence in this assay (P10275 whole entry, looked up): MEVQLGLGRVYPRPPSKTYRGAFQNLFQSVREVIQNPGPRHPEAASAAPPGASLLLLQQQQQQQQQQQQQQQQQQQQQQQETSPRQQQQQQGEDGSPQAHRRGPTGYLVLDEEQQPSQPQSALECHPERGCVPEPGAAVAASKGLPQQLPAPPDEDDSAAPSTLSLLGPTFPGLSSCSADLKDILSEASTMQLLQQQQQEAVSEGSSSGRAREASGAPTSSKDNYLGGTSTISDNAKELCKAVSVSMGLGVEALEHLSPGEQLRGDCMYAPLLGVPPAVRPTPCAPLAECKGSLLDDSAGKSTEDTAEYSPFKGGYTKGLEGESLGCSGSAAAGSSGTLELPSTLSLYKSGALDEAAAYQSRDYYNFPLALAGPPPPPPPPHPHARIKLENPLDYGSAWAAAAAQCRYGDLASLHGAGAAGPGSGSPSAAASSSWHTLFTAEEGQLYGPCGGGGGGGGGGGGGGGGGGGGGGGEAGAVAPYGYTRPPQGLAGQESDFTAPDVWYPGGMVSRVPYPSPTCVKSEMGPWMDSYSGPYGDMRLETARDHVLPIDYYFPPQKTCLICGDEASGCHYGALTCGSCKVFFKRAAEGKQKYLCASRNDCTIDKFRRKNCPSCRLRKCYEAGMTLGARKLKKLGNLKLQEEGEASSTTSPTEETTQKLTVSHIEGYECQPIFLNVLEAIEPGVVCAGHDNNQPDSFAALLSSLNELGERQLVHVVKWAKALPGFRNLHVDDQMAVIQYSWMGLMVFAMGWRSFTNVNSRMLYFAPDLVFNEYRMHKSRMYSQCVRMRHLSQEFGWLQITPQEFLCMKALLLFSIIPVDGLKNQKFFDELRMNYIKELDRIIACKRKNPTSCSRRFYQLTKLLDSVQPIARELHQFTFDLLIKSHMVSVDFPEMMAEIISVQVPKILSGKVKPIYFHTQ
Target sequence in this assay (P40337 whole entry, looked up): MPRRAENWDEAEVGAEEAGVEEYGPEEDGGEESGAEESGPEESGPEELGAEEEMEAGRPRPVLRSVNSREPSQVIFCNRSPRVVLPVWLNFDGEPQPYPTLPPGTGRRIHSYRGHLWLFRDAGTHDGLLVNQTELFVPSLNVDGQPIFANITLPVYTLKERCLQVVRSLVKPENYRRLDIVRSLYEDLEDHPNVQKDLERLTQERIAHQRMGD

Test [2] has as its target T1, von Hippel-Lindau disease tumor suppressor/Androgen receptor. The test can be described thus: Protac activity against VHL/AR in AR-positive human LNCAP cells assessed as reduction in FKBP5 mRNA expression level at 10 nM incubated for 24 hrs by qRT-PCR analysis relative to control. The format is cell-based. The arrangement: scale not given: the % may be the effect or the level left.
Target sequence in this assay (P10275 whole entry, looked up): as the sequence (P10275 whole entry, looked up) above
Target sequence in this assay (P40337 whole entry, looked up): as the sequence (P40337 whole entry, looked up) above

The target is the same in test [3]. Put plainly: Protac activity against VHL/AR in AR-positive human LNCAP cells assessed as reduction in FKBP5 mRNA expression level incubated for 24 hrs by qRT-PCR analysis. The format is cell-based.
Target sequence in this assay (P10275 whole entry, looked up): as the sequence (P10275 whole entry, looked up) above
Target sequence in this assay (P40337 whole entry, looked up): as the sequence (P40337 whole entry, looked up) above
Test [4] has the same target. Put plainly: Protac activity against VHL/AR in AR-positive human LNCAP cells assessed as reduction in TMPRSS2 mRNA expression level at 10 nM incubated for 24 hrs by qRT-PCR analysis relative to control. The format is cell-based. The arrangement: scale not given: the % may be the effect or the level left.
Target sequence in this assay (P10275 whole entry, looked up): as the sequence (P10275 whole entry, looked up) above
Target sequence in this assay (P40337 whole entry, looked up): as the sequence (P40337 whole entry, looked up) above
Test [5] has the same target. The test can be described thus: Protac activity against VHL/AR in AR-positive human LNCAP cells assessed as induction of AR degradation at 0.1 uM incubated for 6 hrs by Western blot analysis relative to control. The class given is cell-based.
Target sequence in this assay (P10275 whole entry, looked up): as the sequence (P10275 whole entry, looked up) above
Target sequence in this assay (P40337 whole entry, looked up): as the sequence (P40337 whole entry, looked up) above
The target is the same in test [6]. The test can be described thus: Protac activity against VHL/AR in AR-positive human LNCAP cells assessed as reduction in PSA mRNA expression level incubated for 24 hrs by qRT-PCR analysis. The format is cell-based.
Target sequence in this assay (P10275 whole entry, looked up): as the sequence (P10275 whole entry, looked up) above
Target sequence in this assay (P40337 whole entry, looked up): as the sequence (P40337 whole entry, looked up) above
Test [7] has the same target. The test can be described thus: Protac activity against VHL/AR in AR-positive human 22Rv1 cells assessed as induction of AR degradation incubated for 6 hrs by Western blot analysis. In general terms: In western blotting, separated proteins are transferred to a membrane and probed.
Test [8] has the same target. The test can be described thus: Protac activity against VHL/AR in AR-positive human 22Rv1 cells assessed as induction of AR degradation by measuring reduction in AR protein level at 10 nM incubated for 6 hrs by Western blot analysis relative to control. Further details: scale not given: the % may be the effect or the level left.
For test [9] the target is unchanged. Put plainly: Protac activity against VHL/AR in AR-positive human LNCAP cells assessed as induction of AR degradation at 0.01 uM incubated for 6 hrs by Western blot analysis relative to control. The class given is cell-based.
For test [10] the target is unchanged. Put plainly: Protac activity against VHL/AR in AR-positive human VCaP cells assessed as induction of AR degradation by measuring reduction in AR protein level at 30 nM incubated for 6 hrs by Western blot analysis relative to control. The class given is cell-based. The arrangement: scale not given: the % may be the effect or the level left.
For test [11] the target is unchanged. The test can be described thus: Protac activity against VHL/AR in AR-positive human LNCAP cells assessed as induction of AR degradation by measuring reduction in AR protein level at 100 nM incubated for 3 hrs by Western blot analysis. The class given is cell-based.
For test [12] the target is unchanged. The test can be described thus: Protac activity against VHL/AR in AR-positive human VCaP cells assessed as reduction in FKBP5 mRNA expression level incubated for 24 hrs by qRT-PCR analysis relative to N-((1r,3r)-3-(3-Chloro-4-cyanophenoxy)-2,2,4,4-tetramethylcyclobutyl)-1-(2-hydroxyethyl)-1H-pyrazole-4-carboxamide. The format is cell-based.
The target is the same in test [13]. Put plainly: Protac activity against VHL/AR in AR-positive human LNCAP cells assessed as AR degradation at 100 nM preincubated with proteasome inhibitor, MG132 for 2 hrs followed by incubation with compound for 6 hrs by Western blot analysis. The format is cell-based.
Test [14] shares this target. The test can be described thus: Protac activity against VHL/AR in AR-positive human VCaP cells assessed as induction of AR degradation incubated for 6 hrs by Western blot analysis. The class given is cell-based.
For test [15] the target is unchanged. The test can be described thus: Protac activity against VHL/AR in AR-positive human LNCAP cells assessed as AR degradation at 100 nM preincubated with AR antagonist N-((1r,3r)-3-(3-Chloro-4-cyanophenoxy)-2,2,4,4-tetramethylcyclobutyl)-1-(2-hydroxyethyl)-1H-pyrazole-4-carboxamide for 2 hrs followed by incubation with compound addition for 6 hrs by Western blot analysis. The format is cell-based.

The target is the same in test [16]. Put plainly: Protac activity against VHL/AR in AR-positive human LNCAP cells assessed as induction of AR degradation by measuring reduction in AR protein level at 30 nM incubated for 6 hrs by Western blot analysis relative to control. The class given is cell-based. The arrangement: scale not given: the % may be the effect or the level left.
The target is the same in test [17]. The test can be described thus: Protac activity against VHL/AR in AR-positive human LNCAP cells assessed as AR degradation at 100 nM preincubated with VHL ligand VHLa for 2 hrs followed by incubation with compound for 6 hrs by Western blot analysis. The class given is cell-based.
The target is the same in test [18]. The test can be described thus: Protac activity against VHL/AR in AR-positive human VCaP cells assessed as reduction in TMPRSS2 mRNA expression level incubated for 24 hrs by qRT-PCR analysis relative to N-((1r,3r)-3-(3-Chloro-4-cyanophenoxy)-2,2,4,4-tetramethylcyclobutyl)-1-(2-hydroxyethyl)-1H-pyrazole-4-carboxamide. The format is cell-based.
Test [19] shares this target. The test can be described thus: Protac activity against VHL/AR in AR-positive human LNCAP cells assessed as induction of AR degradation at 1 uM incubated for 6 hrs by Western blot analysis relative to control. The format is cell-based.
For test [20], the system named is VCaP. Put plainly: Antiproliferative activity against AR- positive human VCaP cells incubated for 7 days in presence of AR agonist, R1881 by WST-8 assay. Particulars: 168 h. The class given is functional, cell-based. For orientation: Formazan colour is commonly taken as a measure of viable cells.
For test [21], the target named is T1, von Hippel-Lindau disease tumor suppressor/Androgen receptor. Put plainly: Protac activity against VHL/AR in AR-positive human LNCAP cells assessed as reduction in TMPRSS2 mRNA expression level incubated for 24 hrs by qRT-PCR analysis relative to N-((1r,3r)-3-(3-Chloro-4-cyanophenoxy)-2,2,4,4-tetramethylcyclobutyl)-1-(2-hydroxyethyl)-1H-pyrazole-4-carboxamide. The format is cell-based.

The target is the same in test [22]. The test can be described thus: Protac activity against VHL/AR in AR-positive human LNCAP cells assessed as reduction in PSA mRNA expression level at 10 nM incubated for 24 hrs by qRT-PCR analysis relative to control. The class given is cell-based. The arrangement: scale not given: the % may be the effect or the level left.
The subject of another test is LNCaP. Put plainly: Antiproliferative activity against AR-positive human LNCAP cells incubated for 7 days in presence of AR agonist, R1881 by WST-8 assay. The following applies: 168 h. The format is functional, cell-based.
Test [23] deals with VCaP. The test can be described thus: Potency index, ratio of IC50 for AR antagonist N-((1r,3r)-3-(3-Chloro-4-cyanophenoxy)-2,2,4,4-tetramethylcyclobutyl)-1-(2-hydroxyethyl)-1H-pyrazole-4-carboxamide to IC50 for test compound against AR-positive human VCaP cells incubated for 7 days in presence of AR agonist R1881 by WST-8 assay. The format is functional.
The target of test [24] is T1, von Hippel-Lindau disease tumor suppressor/Androgen receptor. Put plainly: Protac activity against VHL/AR in AR-positive human VCaP cells assessed as reduction in ERG mRNA expression level incubated for 24 hrs by qRT-PCR analysis relative to N-((1r,3r)-3-(3-Chloro-4-cyanophenoxy)-2,2,4,4-tetramethylcyclobutyl)-1-(2-hydroxyethyl)-1H-pyrazole-4-carboxamide. The class given is cell-based.

Test [25] has the same target. Put plainly: Protac activity against VHL/AR in AR-positive human VCaP cells assessed as induction of AR degradation by measuring reduction in AR protein level at 100 nM incubated for 3 hrs by Western blot analysis relative to control. The format is cell-based. Further details: scale not given: the % may be the effect or the level left.
The target is the same in test [26]. The test can be described thus: Protac activity against VHL/AR in AR-positive human LNCAP cells assessed as reduction in TMPRSS2 mRNA expression level incubated for 24 hrs by qRT-PCR analysis. The format is cell-based.
For test [27] the target is unchanged. The test can be described thus: Protac activity against VHL/AR in AR-positive human LNCAP cells assessed as induction of AR degradation incubated for 6 hrs by Western blot analysis. The format is cell-based.
Test [28] shares this target. Put plainly: Protac activity against VHL/AR in AR-positive human LNCAP cells assessed as AR degradation at 100 nM preincubated with NEDD8-activating E1 enzyme inhibitor, MLN4924 for 2 hrs followed by incubation with compound for 6 hrs by Western blot analysis. The format is cell-based.
Test [29] has the same target. The test can be described thus: Protac activity against VHL/AR in AR-positive human LNCAP cells assessed as reduction in FKBP5 mRNA expression level incubated for 24 hrs by qRT-PCR analysis relative to N-((1r,3r)-3-(3-Chloro-4-cyanophenoxy)-2,2,4,4-tetramethylcyclobutyl)-1-(2-hydroxyethyl)-1H-pyrazole-4-carboxamide. The format is cell-based.

Consider `Cc1cc([C@H](C(=O)N2C[C@H](O)C[C@H]2C(=O)N[C@@H](CC(=O)N2CCC(C#Cc3ccc(C(=O)N[C@H]4C(C)(C)[C@H](Oc5ccc(C#N)c(Cl)c5)C4(C)C)cc3)CC2)c2ccccc2)C(C)C)on1`, for which the fold change (FC) in [1], in [12], in test [18], in [21], in [24] and in test [29] was above 10 throughout. Moreover, the Activity is above 50% in test [2]; “Dose-dependent effect” in test [3]; above 50% in test [4]; above 95% in test [5]; “Dose-dependent effect” in test [6]; “Dose-dependent effect” in test [7]. Besides, the Activity is above 95% in [8]; 90% in test [9]; above 95% in test [10]; “Dose-dependent effect” in test [14]; above 95% in test [16]; above 99% in [19]. The Activity is above 50% in test [22], above 90% in test [25], “Dose-dependent effect” in test [26] and “Dose-dependent effect” in [27]. Further, the 50% degradation concentration (DC50) is 0.153 nM in [7], 0.969 nM in test [14] and 0.535 nM in [27]. Besides, the result in test [11] was Active. Moreover, the outcome in [13], in test [15], in test [17] and in test [28] was inactive. Besides, the half-inhibitory concentration (IC50) with VCaP [20] is 6 nM; with LNCaP, 2 nM. The “Ratio IC50” value with VCaP [23] was 30.

Take `Cc1cc([C@H](C(=O)N2C[C@H](O)C[C@H]2C(=O)N[C@@H](CC(=O)N2CCC(N3CCC(C#Cc4ccc(C(=O)N[C@H]5C(C)(C)[C@H](Oc6ccc(C#N)c(Cl)c6)C5(C)C)cc4)CC3)CC2)c2ccc(-c3scnc3C)cc2)C(C)C)on1`: the Activity in [5] was above 95%; in test [9], 76%; in test [19], above 99%; in test [25] it was above 90%. The result in test [11] was Active. In addition, the DC50 turned out to be 1 nM in test [14] and 7.2 nM in test [27]. The IC50 in the test on VCaP [20] and with LNCaP was 2 nM throughout.
